This is an account of results in PubChem BioAssay (NCI).

SMILES strings stand for the structures. Several values for one entry are separate records, joined by “and”; a condition that tells them apart may be missing. Identical values can stand only once.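 48-hour exposure; five concentrations; linearly interpolated endpoints. At the GI50, growth is halved. TGI is the concentration that stops growth completely.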

Among the test systems are 786-0 renal; A498 renal; COLO 205 colon; LOX IMVI melanoma; OVCAR-4 ovarian; RPMI-8226 leukemia; SF-295 CNS; SK-MEL-2 melanoma; SK-MEL-28 melanoma; UACC-257 melanoma.
What all share (assay): NCI-60 cell line screen, 48 h

Regarding `N#CC1=C(N)Oc2c(sc3c(F)cccc23)C1c1ccc(F)cc1` (stereo unspecified), the GI50 with 786-0 renal was 0.746 µM; with A498 renal, 0.15 µM; with COLO 205 colon, 2.83 µM; in the assay with LOX IMVI melanoma, 0.727 µM; with OVCAR-4 ovarian, 2.03 µM; in the assay with RPMI-8226 leukemia, 1.05 µM. For the same compound, the GI50 with SF-295 CNS is 0.364 µM; in the assay on SK-MEL-2 melanoma, 0.982 µM; in the assay on SK-MEL-28 melanoma, 1.91 µM; in the assay with UACC-257 melanoma, 16.6 µM. In addition, the TGI in the assay with 786-0 renal worked out at 11.7 µM; in the assay on A498 renal it was 0.909 µM; in the assay on COLO 205 colon, 13.2 µM; in the assay with LOX IMVI melanoma it was 12.2 µM; with OVCAR-4 ovarian, 16.6 µM; in the assay on RPMI-8226 leukemia, 14.7 µM. The TGI was determined as 6.28 µM in the assay on SF-295 CNS, 18.6 µM in the assay with SK-MEL-2 melanoma, 19.7 µM in the assay with SK-MEL-28 melanoma and 39.5 µM in the assay with UACC-257 melanoma.

Turning to `CS(=O)(=O)Nc1cc(-c2ccc3ncnc(Nc4ccc5c(cnn5Cc5ccccc5F)c4)c3c2)cnc1Cl`, the GI50 with 786-0 renal was 1.84 µM; in the assay on A498 renal, 1.05 µM; in the assay with COLO 205 colon, 2.39 µM; with LOX IMVI melanoma it was 1.69 µM; with OVCAR-4 ovarian it was 3 µM; with RPMI-8226 leukemia it was 1.64 µM. For the same compound, the GI50 was 1.96 µM with SF-295 CNS, 1.52 µM in the assay with SK-MEL-2 melanoma, 0.771 µM with SK-MEL-28 melanoma and 1.51 µM in the assay with UACC-257 melanoma. Moreover, the TGI is greater than 100 µM with 786-0 renal; 3.71 µM in the assay on A498 renal; 9.09 µM in the assay on COLO 205 colon; 4.71 µM with LOX IMVI melanoma; greater than 100 µM with OVCAR-4 ovarian; 4.18 µM in the assay on RPMI-8226 leukemia. Besides, the TGI in the assay with SF-295 CNS was found to be 8.51 µM; in the assay with SK-MEL-2 melanoma, 4.65 µM; in the assay with SK-MEL-28 melanoma it was 6.59 µM; in the assay on UACC-257 melanoma, 9 µM.

`COC(=O)c1cc2oc(/C=C3\SC(=S)N(NC(C)=O)C3=O)cc2n1Cc1ccccc1`: the GI50 in the assay with 786-0 renal was 8.2 µM; with A498 renal it was 8.07 µM; with COLO 205 colon it was 5.63 µM; in the assay with LOX IMVI melanoma, 0.769 µM; in the assay on RPMI-8226 leukemia, 0.758 µM; with SF-295 CNS, 2.11 µM. The GI50 is 18.5 µM in the assay with SK-MEL-2 melanoma, 9.06 µM with SK-MEL-28 melanoma and 5.69 µM in the assay with UACC-257 melanoma. Further, the TGI with 786-0 renal came out at 18.6 µM; in the assay with A498 renal, 16.8 µM; with COLO 205 colon, 12.6 µM; in the assay with LOX IMVI melanoma, 1.6 µM; in the assay with RPMI-8226 leukemia, 5.55 µM; in the assay on SF-295 CNS, 15.6 µM. In addition, the TGI in the assay with SK-MEL-2 melanoma was greater than 50 µM; with SK-MEL-28 melanoma, 38.5 µM; in the assay with UACC-257 melanoma, 16.4 µM.

For `CC(=O)c1c[nH]cc1CO`, the TGI in the assay on 786-0 renal, in the assay on A498 renal, with COLO 205 colon, with LOX IMVI melanoma, with RPMI-8226 leukemia and in the assay with SF-295 CNS was greater than 10 µM throughout. The TGI in the assay with SK-MEL-2 melanoma and with SK-MEL-28 melanoma was greater than 10 µM each time.

In the case of `CC1=C(C(=O)Nc2ccc(F)c(Cl)c2)C(c2cccc(Oc3ccccc3)c2)NC(=O)N1` (stereo unspecified), the GI50 was 15.4 µM with 786-0 renal; 10.5 µM with A498 renal; 14.2 µM in the assay with COLO 205 colon; 15.4 µM in the assay with LOX IMVI melanoma; 8.51 µM in the assay on RPMI-8226 leukemia; 22.1 µM in the assay with SF-295 CNS. Also, the figures for the GI50 in the assay with SK-MEL-2 melanoma, in the assay with SK-MEL-28 melanoma and with UACC-257 melanoma were 17.2 µM, 14.7 µM and 18 µM, respectively. Also, the TGI came out at 29.8 µM in the assay with 786-0 renal; 23.4 µM in the assay on A498 renal; 29.6 µM in the assay on COLO 205 colon; 28.7 µM with LOX IMVI melanoma; 26.3 µM with RPMI-8226 leukemia; 57 µM with SF-295 CNS. The TGI with SK-MEL-2 melanoma was 32.4 µM; with SK-MEL-28 melanoma, 28.1 µM; in the assay with UACC-257 melanoma, 34.9 µM.

As to `[C-]#[N+]C(C)(C)C[C@H]1CC(C)C2CCC(C)C3([N+]#[C-])CCC(=C)C1[C@H]23` (stereo partly specified), the TGI in the assay with 786-0 renal came out at 15.3 µM; in the assay on A498 renal, 23.9 µM; in the assay on COLO 205 colon it was 0.65 µM; in the assay with LOX IMVI melanoma, 0.421 µM; in the assay with OVCAR-4 ovarian, 13.1 µM; with SF-295 CNS, 24.1 µM. In addition, the TGI with SK-MEL-2 melanoma is 2.67 µM; with SK-MEL-28 melanoma it was greater than 50 µM; with UACC-257 melanoma, 10.9 µM.

In the case of `C[CH2][Sn]([CH2]C)([O]C(=O)c1cccc(F)c1)[O][Sn]([CH2]C)([CH2]C)[O]C(=O)c1cccc(F)c1`, the GI50 with 786-0 renal is 15.8 µM; in the assay on A498 renal it was 16.5 µM; in the assay with COLO 205 colon, 18.3 µM; in the assay on LOX IMVI melanoma, 15.9 µM; in the assay on OVCAR-4 ovarian, 22.8 µM; in the assay with SF-295 CNS, 18.7 µM. In addition, the GI50 in the assay on SK-MEL-2 melanoma is 16.4 µM; with SK-MEL-28 melanoma, 16.7 µM; in the assay on UACC-257 melanoma, 16.8 µM. Also, the TGI worked out at 29.3 µM in the assay with 786-0 renal; 30.2 µM in the assay with A498 renal; 32.2 µM with COLO 205 colon; 29.6 µM with LOX IMVI melanoma; 46.7 µM in the assay with OVCAR-4 ovarian; 36.9 µM with SF-295 CNS. For the same compound, the figures for the TGI in the assay on SK-MEL-2 melanoma, in the assay on SK-MEL-28 melanoma and with UACC-257 melanoma were 30.3 µM, 30.5 µM and 30.9 µM, respectively.

Take `C=CCN=C1NC(=O)C(CC(=O)Nc2ccc(C)cc2)S1` (stereo unspecified): the TGI in the assay with 786-0 renal, in the assay on A498 renal, in the assay with COLO 205 colon, with LOX IMVI melanoma, in the assay on OVCAR-4 ovarian and in the assay with RPMI-8226 leukemia was greater than 100 µM throughout. In addition, the TGI with SF-295 CNS, in the assay on SK-MEL-2 melanoma and with SK-MEL-28 melanoma was greater than 100 µM each time.

Consider `COC(=O)[C@@H](C)C[C@H](Cc1ccccc1)NC(=O)c1csc([C@@H](C[C@H](C(C)C)N(C)C(=O)C2(NC(=O)[C@H]3CCCCN3C)CC2)OC(C)=O)n1`, for which the TGI in the assay on 786-0 renal was greater than 33.3 µM; with COLO 205 colon it was 0.0644 µM; with LOX IMVI melanoma it was greater than 33.3 µM; with RPMI-8226 leukemia it was 17 µM; in the assay on SF-295 CNS, greater than 33.3 µM. Also, the GI50 was 0.00858 µM and < 0.00333 µM in the assay on A498 renal; 0.00346 µM in the assay on COLO 205 colon; 0.00947 µM and 0.00333 µM in the assay on LOX IMVI melanoma; 0.00865 µM in the assay with OVCAR-4 ovarian; 0.000613 µM and 0.00333 µM in the assay on RPMI-8226 leukemia; 0.0251 µM and 0.00333 µM in the assay on SF-295 CNS. Besides, the GI50 in the assay with SK-MEL-2 melanoma was 0.00411 µM.

With `Cc1cc(=O)oc2cc(OCc3nc4ccccc4c(=O)[nH]3)ccc12`, the TGI in the assay with 786-0 renal, with A498 renal, with COLO 205 colon, with LOX IMVI melanoma, in the assay on OVCAR-4 ovarian and in the assay on RPMI-8226 leukemia was greater than 100 µM in each case. Besides, the TGI in the assay on SF-295 CNS, with SK-MEL-2 melanoma and with SK-MEL-28 melanoma was greater than 100 µM each time.
